Among the test systems are CCRF-CEM; EKVX; HCT-15; IGROV-1; KM12; LOX IMVI; M14; NCI-H23; NCI-H460; RPMI-8226; SF-268; SF-539; SK-MEL-28; SK-MEL-5; SK-OV-3; TK-10; UACC-257; HOP-92; SNB-19; UO-31.
What all share (assay): NCI anticancer screen, dose series, 48 h

SMILES strings stand for the structures.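 Results reflect a 48-hour exposure of cells in 96-well plates to compound at five concentrations. At the GI50, growth is halved.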 The source made the active and inactive calls. Rule as the data show it: active = GI50 up to about 1.1 µM and inactive = higher.

As for `COc1ccc(C(CC(=O)c2cccs2)C(=O)c2ccc3c(c2)OCO3)cc1` (stereo not given), the GI50 was > 100 µM (inactive) in the assay with CCRF-CEM; > 100 µM (inactive) in the assay with EKVX; > 100 µM with HCT-15; > 100 µM (inactive) in the assay on IGROV-1; > 100 µM (inactive) with KM12; > 100 µM (inactive) with LOX IMVI. The GI50 with M14 is > 100 µM (inactive); with NCI-H23, > 100 µM (inactive); in the assay on NCI-H460, > 100 µM (inactive); in the assay with RPMI-8226 it was 59.8 µM (inactive); in the assay on SF-268, > 100 µM (inactive); in the assay on SF-539, > 100 µM (inactive). In addition, the GI50 in the assay with SK-MEL-28, with SK-MEL-5, in the assay with SK-OV-3, in the assay on TK-10 and in the assay on UACC-257 was > 100 µM (inactive) throughout.

Consider `O=C1Nc2ccccc2/C1=N/NC(=S)Nc1ccccc1Cl`, for which the GI50 was 0.724 µM (active) with CCRF-CEM; 4.34 µM (inactive) in the assay on EKVX; 2.31 µM in the assay with HCT-15; 3.7 µM (inactive) with HOP-92; 3.33 µM (inactive) in the assay on IGROV-1; 1.98 µM (inactive) with KM12. Further, the GI50 in the assay with LOX IMVI is 2.52 µM (inactive); in the assay with M14, 1.62 µM (inactive); in the assay with NCI-H23, 8.71 µM (inactive); in the assay on NCI-H460, 0.735 µM (active); in the assay with SF-268 it was 0.706 µM (active); with SF-539, 2.4 µM (inactive). Besides, the GI50 in the assay with SK-MEL-28 is 12.2 µM (inactive); in the assay with SK-MEL-5, 2.89 µM (inactive); in the assay with SK-OV-3, 10.7 µM (inactive); in the assay on SNB-19 it was 4.84 µM (inactive); in the assay on TK-10, 2.1 µM (inactive); in the assay on UACC-257, 2 µM (inactive). Moreover, the GI50 with UO-31 is 3.32 µM (inactive).

With `CC1(O)CCC2(C#N)CCC1C2O` (stereo not given), the GI50 in the assay on CCRF-CEM was 49 µM (inactive); with EKVX, > 100 µM (inactive); with HCT-15, > 100 µM; with IGROV-1 it was > 100 µM (inactive); in the assay on KM12, > 100 µM (inactive); in the assay with LOX IMVI, 23.2 µM (inactive). Further, the GI50 in the assay with M14 is > 100 µM (inactive); with NCI-H460, 43.9 µM (inactive); in the assay on RPMI-8226, 26.5 µM (inactive); in the assay with SF-268 it was > 100 µM (inactive); with SF-539 it was > 100 µM (inactive); with SK-MEL-28 it was > 100 µM (inactive). Further, the GI50 with SK-MEL-5, in the assay on SK-OV-3, with SNB-19, in the assay with TK-10, in the assay with UACC-257 and in the assay with UO-31 was > 100 µM (inactive) each time.

As for `COCOc1ccc(Cn2c(=O)n(C)c(=O)c3c2ncn3C)cc1[N+](=O)[O-]`, the GI50 with CCRF-CEM was > 100 µM (inactive); in the assay with EKVX, 54.7 µM (inactive); in the assay on HCT-15, > 100 µM; with IGROV-1 it was > 100 µM (inactive); with KM12, > 100 µM (inactive); with LOX IMVI, > 100 µM (inactive). Moreover, the GI50 is > 100 µM (inactive) in the assay on M14; 80.2 µM (inactive) in the assay with NCI-H23; > 100 µM (inactive) with NCI-H460; 66.2 µM (inactive) in the assay on RPMI-8226; > 100 µM (inactive) in the assay with SF-268; > 100 µM (inactive) in the assay with SF-539. The GI50 with SK-MEL-28 was > 100 µM (inactive); in the assay on SK-OV-3, 49.3 µM (inactive); with SNB-19, > 100 µM (inactive); with TK-10 it was > 100 µM (inactive); with UACC-257, 57.5 µM (inactive); in the assay with UO-31 it was > 100 µM (inactive).

Take `CN1CC(c2ccccc2)N(CCCCN2CC(c3ccccc3)N(C)CC2c2ccccc2)CC1c1ccccc1` (stereo not given): the GI50 was 20.9 µM (inactive) in the assay on CCRF-CEM; 59 µM (inactive) with EKVX; 29.2 µM in the assay with HCT-15; 26.8 µM (inactive) in the assay on HOP-92; 45 µM (inactive) in the assay on IGROV-1; 50.5 µM (inactive) in the assay on KM12. Besides, the GI50 was 14.8 µM (inactive) in the assay with LOX IMVI; 25.9 µM (inactive) in the assay with M14; 18.1 µM (inactive) in the assay with NCI-H460; > 100 µM (inactive) with SF-268; 52.7 µM (inactive) in the assay with SF-539; > 100 µM (inactive) with SK-MEL-28. The GI50 is 31.7 µM (inactive) with SK-MEL-5; > 100 µM (inactive) in the assay with SK-OV-3; 54.7 µM (inactive) with SNB-19; 54.1 µM (inactive) with TK-10; 13.5 µM (inactive) in the assay with UACC-257; 57.9 µM (inactive) in the assay on UO-31.

As for `O=C1c2ccccc2C(=O)c2c(OCCOCCO)cccc21`, the GI50 in the assay on EKVX was > 100 µM (inactive); in the assay on HCT-15, 63.7 µM; in the assay with HOP-92, 12.6 µM (inactive); with IGROV-1, 45.5 µM (inactive); in the assay on KM12, 46.6 µM (inactive); with LOX IMVI, 50.2 µM (inactive). Besides, the GI50 is > 100 µM (inactive) in the assay with M14; > 100 µM (inactive) in the assay on NCI-H23; 54.7 µM (inactive) in the assay with NCI-H460; 44.9 µM (inactive) with SF-268; 45.3 µM (inactive) in the assay on SF-539; > 100 µM (inactive) in the assay on SK-MEL-28. Moreover, the GI50 with SK-MEL-5 was 44.2 µM (inactive); with SK-OV-3, > 100 µM (inactive); in the assay with SNB-19 it was > 100 µM (inactive); in the assay on TK-10, 53.6 µM (inactive); in the assay on UACC-257, > 100 µM (inactive); with UO-31, 38.9 µM (inactive).

As for `COc1ccc(OC)c2c1C(=O)C(Cl)=C(N1CCN(CCOCCO)CC1)C2=O`, the GI50 in the assay with CCRF-CEM is 2.72 µM (inactive); with EKVX, 18.9 µM (inactive); in the assay with HCT-15, 7.38 µM; with HOP-92 it was 17.7 µM (inactive); in the assay on IGROV-1, 7.31 µM (inactive); with KM12, 20.5 µM (inactive). Also, the GI50 was 17.2 µM (inactive) in the assay with M14; 7.6 µM (inactive) in the assay on NCI-H23; 18.8 µM (inactive) with NCI-H460; 2.94 µM (inactive) in the assay on RPMI-8226; 13.6 µM (inactive) with SF-268; 17.8 µM (inactive) in the assay with SF-539. Besides, the GI50 was 16.1 µM (inactive) in the assay with SK-MEL-28; 16.5 µM (inactive) in the assay with SK-MEL-5; 19.6 µM (inactive) with SK-OV-3; 16 µM (inactive) in the assay on SNB-19; 19 µM (inactive) with TK-10; 17.3 µM (inactive) with UACC-257. Moreover, the GI50 with UO-31 was 16.4 µM (inactive).

In the case of `CCOP(=O)(OCC)C(Cc1ccc(OC)c(OC)c1)N=C(c1ccccc1)c1ccccc1` (stereo not given), the GI50 in the assay with CCRF-CEM is 24 µM (inactive); in the assay on HCT-15 it was 32.5 µM; with HOP-92, 37.9 µM (inactive); in the assay with IGROV-1 it was 45.2 µM (inactive); in the assay with KM12, 36.4 µM (inactive); in the assay on M14 it was 51.8 µM (inactive). In addition, the GI50 with NCI-H23 was 41.6 µM (inactive); in the assay with NCI-H460 it was 34 µM (inactive); in the assay on RPMI-8226 it was 18.8 µM (inactive); in the assay with SF-268, > 100 µM (inactive); with SF-539 it was 75 µM (inactive); with SK-MEL-28, 45.3 µM (inactive). Besides, the GI50 is 23.4 µM (inactive) in the assay on SK-MEL-5; 63 µM (inactive) with SNB-19; 40.8 µM (inactive) in the assay with TK-10; 56.8 µM (inactive) in the assay on UACC-257; 40.4 µM (inactive) with UO-31.

As for `O=C(CSc1nnc(-c2ccc(/N=C\c3ccc(Cl)cc3)cc2)o1)Nc1ccccc1`, the GI50 in the assay on CCRF-CEM is 32.9 µM (inactive); in the assay on EKVX it was > 100 µM (inactive); in the assay on HCT-15, 68.2 µM; with KM12, > 10 µM (inactive); in the assay on LOX IMVI, 19.6 µM (inactive); in the assay with M14, 76 µM (inactive). Besides, the GI50 in the assay on NCI-H23 was 50.2 µM (inactive); with NCI-H460, > 100 µM (inactive); in the assay on RPMI-8226, 31.6 µM (inactive); in the assay with SF-268 it was 35.7 µM (inactive); with SK-MEL-28, 43.6 µM (inactive); in the assay with SK-MEL-5, 89.9 µM (inactive). Moreover, the GI50 with SK-OV-3 is > 100 µM (inactive); in the assay with SNB-19, 53 µM (inactive); in the assay on TK-10 it was > 100 µM (inactive); with UACC-257 it was > 100 µM (inactive); in the assay with UO-31, 98.4 µM (inactive).

Take `C[C@H]1COC2(c3ccccc3)CCC(=O)N12` (stereo not given in full): the GI50 is > 100 µM (inactive) in the assay with CCRF-CEM; > 100 µM (inactive) with EKVX; > 100 µM with HCT-15; > 100 µM (inactive) in the assay with HOP-92; > 100 µM (inactive) in the assay with IGROV-1; > 100 µM (inactive) in the assay on KM12. Further, the GI50 with LOX IMVI, in the assay with NCI-H23, in the assay on NCI-H460, in the assay with RPMI-8226, in the assay with SF-268 and with SF-539 was > 100 µM (inactive) each time. Further, the GI50 in the assay on SK-MEL-28, in the assay with SK-MEL-5, in the assay on SNB-19, in the assay on TK-10 and in the assay with UACC-257 was > 100 µM (inactive) throughout.

Turning to `Nc1nccc2c1ncn2[C@H]1C[C@H](O)[C@@H](CO)O1`, the GI50 with CCRF-CEM was > 100 µM (inactive); in the assay with HCT-15, > 100 µM; with HOP-92, > 100 µM (inactive); in the assay with IGROV-1 it was > 100 µM (inactive); in the assay with KM12, > 100 µM (inactive); in the assay on LOX IMVI, > 100 µM (inactive). For the same compound, the GI50 with M14, with NCI-H23, with NCI-H460, in the assay with RPMI-8226, in the assay with SK-MEL-28 and with SK-MEL-5 was > 100 µM (inactive) each time. Besides, the GI50 in the assay with SK-OV-3, with SNB-19, in the assay with TK-10, with UACC-257 and with UO-31 was > 100 µM (inactive) each time.

For the origin of these results see ChEMBL document CHEMBL1201862, “PubChem BioAssay data set” (2004).
